This note sets out measurements from ChEMBL document CHEMBL1153691, “2-Deoxyadenylyl-(35)-isodideoxyadenosine, a unique dinucleotide: Synthesis, enzymology, and conformational studies” (Bioorg Med Chem Lett, 1995).

Data set [1] concerns snake venom phosphodiesterase. The experiment in a line: Enzymatic stability was assessed with snake venom phosphodiesterase (SV PDE) exonuclase. It counts as ADME. The following applies: serpentes, snake venom phosphodiesterase (SV PDE) exonuclease.
Data set [2] deals with bovine spleen phosphodiesterase. The experiment in a line: Enzymatic stability was assessed with bovine spleen phosphodiesterase (BS PDE) exonuclase. The following applies: cattle, bovine spleen phosphodiesterase (BS PDE) exonuclease. It counts as ADME, Bos taurus.
Data set [3] has as its target Human immunodeficiency virus type 1 reverse transcriptase (Human immunodeficiency virus 1, UniProt Q72547). The experiment in a line: Inhibitory activity against HIV reverse transcriptase (HIV RT).

A word on the half-life: it is the time in which the quantity being followed falls by half. A high value points to slow decline. The term Ki denotes a measure of affinity in units of concentration, obtained from inhibition or displacement. Higher therefore signals a looser hold on the target.

The structures appear in SMILES notation.

On to `Nc1ncnc2c1ncn2[C@@H]1CO[C@H](COP(=O)([O-])OC2C[C@H](n3cnc4c(N)ncnc43)OC2CO)C1.[Na+]` (stereo not given in full), for which the half-life in data set [1] is > 550 min; in data set [2] it was 50 min.

Consider `Nc1ncnc2c1ncn2[C@H]1C[C@H](OP(=O)(O)OC[C@H]2O[C@@H](n3cnc4c(N)ncnc43)C[C@@H]2O)[C@@H](CO)O1`, for which the half-life in data set [1] was < 1 min; in data set [2], 1.5 min.

For `Nc1ncnc2c1ncn2C1COC(COP(=O)(O)OP(=O)(O)OP(=O)(O)O)C1` (stereo not given), in data set [3], affinity was put at a Ki of 0.016 µM.
